The target in this assay is Tubulin alpha-1A chain (Sus scrofa, UniProt P02550). As to the kind of experiment: Not found.
Excerpt: Not found

For orientation: IC50 means the point on the concentration scale where inhibition reaches its midpoint. Low values mean higher potency, high ones lower potency.

Tubulin alpha-1A chain, sequence (P02550 whole entry, looked up): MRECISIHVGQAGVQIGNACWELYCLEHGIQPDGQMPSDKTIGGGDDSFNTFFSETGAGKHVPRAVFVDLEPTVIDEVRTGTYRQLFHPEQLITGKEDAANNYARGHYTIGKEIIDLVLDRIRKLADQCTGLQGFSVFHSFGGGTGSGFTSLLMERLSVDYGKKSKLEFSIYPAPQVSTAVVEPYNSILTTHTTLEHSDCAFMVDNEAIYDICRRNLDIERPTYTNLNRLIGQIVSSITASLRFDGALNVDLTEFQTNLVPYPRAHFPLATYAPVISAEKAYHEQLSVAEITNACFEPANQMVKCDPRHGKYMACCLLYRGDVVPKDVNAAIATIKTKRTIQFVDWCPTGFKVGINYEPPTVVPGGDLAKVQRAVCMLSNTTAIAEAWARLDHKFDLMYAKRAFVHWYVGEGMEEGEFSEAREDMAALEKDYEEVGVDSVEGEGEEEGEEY

Consider `Cc1ncc(C(=O)Nc2ncc(-c3cccc(NC4CC4)c3)cc2F)cn1` [US12383533, Compound 68], for which half-maximal inhibition (IC50) required 1980 nM.

(Values after BindingDB's records for patent US12383533 (Frost Biologic, 2025).)
